Among the data in patent US10385070B2, “Chroman-spirocyclic piperidine amides as modulators of ion channels” (VERTEX PHARMACEUTICALS INCORPORATED, priority 2011, dated 2019) are IC50 values, retold here.

Each structure is given as a SMILES string.

Chain of human NaV subtype, like NaV 1.7 (Q15858 whole entry): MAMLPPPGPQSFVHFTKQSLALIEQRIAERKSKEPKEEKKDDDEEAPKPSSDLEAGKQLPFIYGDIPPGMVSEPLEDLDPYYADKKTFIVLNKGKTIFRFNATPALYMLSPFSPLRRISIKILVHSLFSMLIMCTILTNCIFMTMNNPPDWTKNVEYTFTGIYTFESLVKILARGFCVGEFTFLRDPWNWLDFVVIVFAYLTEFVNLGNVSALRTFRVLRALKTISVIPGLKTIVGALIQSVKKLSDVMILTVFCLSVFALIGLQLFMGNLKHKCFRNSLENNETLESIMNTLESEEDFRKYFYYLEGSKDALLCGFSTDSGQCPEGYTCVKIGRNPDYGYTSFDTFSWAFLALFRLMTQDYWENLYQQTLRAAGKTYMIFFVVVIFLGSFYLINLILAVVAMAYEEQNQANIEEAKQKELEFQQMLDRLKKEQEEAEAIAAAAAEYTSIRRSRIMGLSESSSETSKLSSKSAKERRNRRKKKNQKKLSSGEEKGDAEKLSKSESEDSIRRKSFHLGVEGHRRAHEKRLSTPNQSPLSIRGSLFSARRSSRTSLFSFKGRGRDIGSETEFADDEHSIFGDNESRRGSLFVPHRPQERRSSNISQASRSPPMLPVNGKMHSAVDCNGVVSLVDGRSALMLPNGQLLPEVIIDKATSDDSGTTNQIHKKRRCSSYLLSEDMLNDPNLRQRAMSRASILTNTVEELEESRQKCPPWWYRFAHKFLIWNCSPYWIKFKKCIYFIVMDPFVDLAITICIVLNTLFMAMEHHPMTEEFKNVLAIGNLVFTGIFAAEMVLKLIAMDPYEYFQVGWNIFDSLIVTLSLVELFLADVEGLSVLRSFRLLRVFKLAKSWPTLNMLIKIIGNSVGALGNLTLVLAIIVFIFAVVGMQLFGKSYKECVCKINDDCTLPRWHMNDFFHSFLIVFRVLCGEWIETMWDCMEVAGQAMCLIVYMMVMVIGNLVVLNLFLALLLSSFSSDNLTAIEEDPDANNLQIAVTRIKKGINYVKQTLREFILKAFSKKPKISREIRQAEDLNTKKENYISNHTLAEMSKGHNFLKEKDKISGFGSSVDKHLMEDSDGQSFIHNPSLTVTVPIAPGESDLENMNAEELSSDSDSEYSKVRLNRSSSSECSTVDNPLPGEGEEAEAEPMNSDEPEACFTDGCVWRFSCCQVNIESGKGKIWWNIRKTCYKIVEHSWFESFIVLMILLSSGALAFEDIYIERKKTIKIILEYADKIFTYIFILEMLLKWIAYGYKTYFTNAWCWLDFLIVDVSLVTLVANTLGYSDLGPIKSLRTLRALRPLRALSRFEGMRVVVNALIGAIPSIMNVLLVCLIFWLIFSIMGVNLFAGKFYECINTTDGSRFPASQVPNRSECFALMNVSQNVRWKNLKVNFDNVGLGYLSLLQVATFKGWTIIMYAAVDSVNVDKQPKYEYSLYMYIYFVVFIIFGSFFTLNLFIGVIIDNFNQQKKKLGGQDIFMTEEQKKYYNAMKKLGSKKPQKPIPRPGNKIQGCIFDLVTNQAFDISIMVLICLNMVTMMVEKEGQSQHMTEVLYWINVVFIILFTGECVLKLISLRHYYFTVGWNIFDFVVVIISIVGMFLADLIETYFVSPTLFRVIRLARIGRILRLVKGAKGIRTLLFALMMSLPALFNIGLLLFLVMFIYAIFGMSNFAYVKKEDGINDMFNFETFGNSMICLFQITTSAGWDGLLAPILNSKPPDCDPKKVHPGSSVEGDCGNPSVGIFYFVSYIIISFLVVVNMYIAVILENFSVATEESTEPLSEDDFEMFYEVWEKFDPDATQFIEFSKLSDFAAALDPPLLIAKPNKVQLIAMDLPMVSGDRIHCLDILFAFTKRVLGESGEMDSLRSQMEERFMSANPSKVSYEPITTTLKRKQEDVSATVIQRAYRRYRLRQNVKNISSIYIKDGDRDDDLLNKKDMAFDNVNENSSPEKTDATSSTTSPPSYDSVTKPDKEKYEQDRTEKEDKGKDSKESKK

For this assay, the target named is human NaV subtype, like NaV 1.7 (Homo sapiens, UniProt Q15858). The experiment in a line: E-VIPR optical membrane potential assay with electrical stimulation. The format is cell-based. Particulars: active against one or more sodium channels; assay and NaV subtype not specified for Table 3; read-out: IC50 Binned Activity Data. The source says:
Assays for Detecting and Measuring NaV Inhibition Properties of Compound E-VIPR Optical Membrane Potential Assay Method with Electrical Stimulation
Sodium channels are voltage-dependent proteins that can be activated by inducing membrane voltage changes by applying electric fields. The electrical stimulation instrument and methods of use are described in Ion Channel Assay Methods PCT/US01/21652, herein incorporated by reference and are referred to as E-VIPR. The instrument comprises a microtiter plate handler, an optical system for exciting the coumarin dye while simultaneously recording the coumarin and oxonol emissions, a waveform generator, a current- or voltage-controlled amplifier, and a device for inserting electrodes in well. Under integrated computer control, this instrument passes user-programmed electrical stimulus protocols to cells within the wells of the microtiter plate.
24 hours before the assay on E-VIPR, HEK cells expressing human NaV subtype, like NaV 1.7, are seeded in 384-well poly-lysine coated plates at 15,000-20,000 cells per well. Other subtypes are performed in an analogous mode in a cell line expressing the NaV of interest. HEK cells are grown in media (exact composition is specific to each cell type and NaV subtype) supplemented with 10% FBS (Fetal Bovine Serum, qualified; GibcoBRL #16140-071) and 1% Pen-Strep (Penicillin-Streptomycin; GibcoBRL #15140-122). Cells are grown in vented cap flasks, in 90% humidity and 10% CO2, to 100% confluence. They are usually split by trypsinization 1:10 or 1:20, depending on scheduling needs, and grown for 2-3 days before the next split.
100 mg/mL Pluronic F-127 (Sigma #P2443), in dry DMSO
Compound Plates: 384-well round bottom plate, e.g. Corning 384-well Polypropylene Round Bottom #3656
Cell Plates: 384-well tissue culture treated plate, e.g. Greiner #781091-1B
Bath1 buffer. Glucose 10 mM (1.8 g/L), Magnesium Chloride (Anhydrous), 1 mM (0.095 g/L), Calcium Chloride, 2 mM (0.222 g/L), HEPES 10 mM (2.38 g/L), Potassium Chloride, 4.5 mM (0.335 g/L), Sodium Chloride 160 mM (9.35 g/L).
Hexyl Dye Solution: Bath1 Buffer+0.5% β-cyclodextrin (make this prior to use, Sigma #C4767), 8 μM CC2-DMPE+2.5 μM DiSBAC6(3). To make the solution Add volume of 10% Pluronic F127 stock equal to volumes of CC2-DMPE+DiSBAC6(3). The order of preparation is first mix Pluronic and CC2-DMPE, then add DiSBAC6(3) while vortexing, then add Bath1+β-Cyclodextrin.
1) Pre-spot compounds (in neat DMSO) into compound plates. Vehicle control (neat DMSO), the positive control (20 mM DMSO stock tetracaine, 125 μM final in assay) and test compounds are added to each well at 160× desired final concentration in neat DMSO. Final compound plate volume will be 80 μL (80-fold intermediate dilution from 1 μL DMSO spot; 160-fold final dilution after transfer to cell plate). Final DMSO concentration for all wells in assay is 0.625%.
2) Prepare Hexyl Dye Solution.
3) Prepare cell plates. On the day of the assay, medium is aspirated and cells are washed three times with 100 μL of Bath1 Solution, maintaining 25 μL residual volume in each well.
4) Dispense 25 μL per well of Hexyl Dye Solution into cell plates. Incubate for 20-35 minutes at room temp or ambient conditions.
5) Dispense 80 μL per well of Bath1 into compound plates. Acid Yellow-17 (1 mM) is added and Potassium Chloride can be altered from 4.5 to 20 mM depending on the NaV subtype and assay sensitivity.
6) Wash cell plates three times with 100 μL per well of Bath1, leaving 25 μL of residual volume. Then transfer 25 uL per well from Compound Plates to Cell Plates. Incubate for 20-35 minutes at room temp/ambient condition
7) Read Plate on E-VIPR. Use the current-controlled amplifier to deliver stimulation wave pulses for typically 9 seconds and a scan rate of 400 Hz. A pre-stimulus recording is performed for 0.5 seconds to obtain the un-stimulated intensities baseline. […]
Take `CC(C)O[C@@H]1CC2(CCN(C(=O)c3ccc(NC4(C)COC4)cn3)CC2)Oc2ccc(F)cc21` [Compound 1]: the IC50 was at most 2 µM.

As to `COc1cc(C(=O)N2CCC3(CC2)CC(COC(C)C)c2ccccc2O3)ccc1OC(C)C` (stereo not drawn) [Compound 2], the concentration for half-maximal inhibition (IC50) was at most 2 µM. The same measure for `COc1cc(C(=O)N2CCC3(CC2)CC(Oc2cncc(C#N)c2)c2ccccc2O3)ccc1OC(C)C` (stereo not drawn) [Compound 3]: at most 2 µM; for `CCS(=O)(=O)c1ccc(C(=O)N2CCC3(CC2)C[C@@H](OC(C)C)c2cc(F)cc(F)c2O3)cc1C` [Compound 4]: 2 to 5 µM. `CCO[C@@H]1CC2(CCN(C(=O)c3ccc(S(=O)(=O)CC(C)C)cc3)CC2)Oc2ccc(F)cc21` [Compound 5]: the IC50 is at most 2 µM. `COc1cc(C(=O)N2CCC3(CC2)CC(C(C)OC)c2ccccc2O3)ccc1OC(C)C` (stereo not drawn) [Compound 6]: the IC50 is at most 2 µM.

Take `CC(C)O[C@@H]1CC2(CCN(C(=O)c3ccc(S(=O)(=O)C(F)(F)F)cc3)CC2)Oc2ccc(F)cc21` [Compound 7]: the IC50 is at most 2 µM. The value for `CC(C)Oc1ccc(C(=O)N2CCC3(CC2)C[C@@H](OC(C)C)c2cc(F)ccc2O3)cc1CN` [Compound 8] was over 5 µM. For `CCS(=O)(=O)c1ccc(C(=O)N2CCC3(CC2)C[C@@H](OC(C)C)c2cc(F)ccc2O3)cc1C` [Compound 9], the IC50 was at most 2 µM. Turning to `COc1cc(C(=O)N2CCC3(CC2)C[C@@H](OC(C)C)c2cc(F)ccc2O3)ccc1C(C)(C)O` [Compound 10], the concentration for half-maximal inhibition (IC50) is at most 2 µM. As to `Cc1cc(S(=O)(=O)C(C)C)ccc1C(=O)N1CCC2(CC1)C[C@@H](OC(C)C)c1cc(F)ccc1O2` [Compound 11], the IC50 is at most 2 µM.

`CCOC1CC2(CCN(C(=O)c3ccc(OC(C)C)c(OC)c3)CC2)Oc2ccccc21` (stereo not drawn) [Compound 12]: the IC50 is at most 2 µM.

In the case of `Cc1cc(C(=O)N2CCC3(CC2)C[C@@H](OC(C)C)c2cc(F)ccc2O3)ccc1S(=O)(=O)C(C)C` [Compound 13], the IC50 is at most 2 µM. The same measure for `CC(C)O[C@@H]1CC2(CCN(C(=O)c3cccc4cccnc34)CC2)Oc2ccccc21` [Compound 14]: at most 2 µM; for `CNCc1cc(C(=O)N2CCC3(CC2)C[C@@H](OC(C)C)c2cc(F)ccc2O3)ccc1OC(C)C` [Compound 15]: over 5 µM. With `CC(C)O[C@@H]1CC2(CCN(C(=O)c3ccc(N(C)C(C)C)cn3)CC2)Oc2ccc(F)cc21` [Compound 16], the IC50 is at most 2 µM. The same measure for `CC(C)O[C@@H]1CC2(CCN(C(=O)c3ccc(N4CCN(S(C)(=O)=O)CC4)cn3)CC2)Oc2ccc(F)cc21` [Compound 17]: at most 2 µM.

For the molecule `COc1ccc(C(=O)N2CCC3(CC2)CC(c2ccccc2)c2ccccc2O3)cc1OC` (stereo not drawn) [Compound 18], the concentration for half-maximal inhibition (IC50) is at most 2 µM. On to `CC(C)O[C@@H]1CC2(CCN(C(=O)c3ccc(NS(=O)(=O)C(C)C)cc3)CC2)Oc2ccc(F)cc21` [Compound 19], for which the IC50 is at most 2 µM. Turning to `COc1ccc(C(=O)N2CCC3(CC2)C[C@@H](OC(C)C)c2ccccc2O3)cc1C` [Compound 20], the half-inhibitory concentration (IC50) is at most 2 µM. Take `C=CCOC1CC2(CCN(C(=O)c3ccc(OC(C)C)c(OC)c3)CC2)Oc2ccccc21` (stereo not drawn) [Compound 21]: the IC50 was at most 2 µM. Turning to `CC(C)O[C@@H]1CC2(CCN(C(=O)c3ccc(S(=O)(=O)C(C)C)c(C#N)c3)CC2)Oc2ccc(F)cc21` [Compound 22], the IC50 is at most 2 µM. Regarding `COc1cc(C(=O)N2CCC3(CC2)CC(COCC(F)F)c2ccccc2O3)ccc1OC(C)C` (stereo not drawn) [Compound 23], the IC50 is at most 2 µM. Regarding `CCOC1CC2(CCN(C(=O)c3ccc(OC(C)C)c(OC)c3)CC2)S(=O)(=O)c2ccccc21` (stereo not drawn) [Compound 24], the IC50 is at most 2 µM. On to `COc1cc(C(=O)N2CCC3(CC2)CC(OC(C)C)c2ccc(F)cc2O3)ccc1OC(C)C` (stereo not drawn) [Compound 25], for which the IC50 is at most 2 µM. Consider `Cc1cc(C(=O)N2CCC3(CC2)C[C@H](OC(C)C)c2ccccc2O3)ccc1C(C)(C)O` [Compound 26], for which the 50% inhibitory concentration (IC50) is at most 2 µM. As for `Cc1cc(C(=O)N2CCC3(CC2)C[C@@H](OC(C)C)c2cc(F)cc(F)c2O3)ccc1S(=O)(=O)C(C)C` [Compound 27], the IC50 is at most 2 µM. The value for `CC(C)O[C@@H]1CC2(CCN(C(=O)c3ccc4[nH]ncc4c3)CC2)Oc2ccccc21` [Compound 28] was 2 to 5 µM; that for `CC(C)OC1CC2(CCN(C(=O)c3ccc(S(=O)(=O)C(C)C)c(C#N)c3)CC2)Oc2ccc(F)cc21` (stereo not drawn) [Compound 29] was at most 2 µM; that for `CC(C)OC1CC2(CCN(C(=O)c3ccc(S(=O)(=O)CC4CC4)cn3)CC2)Oc2ccc(F)cc21` (stereo not drawn) [Compound 30] was 2 to 5 µM. For `CC(C)O[C@@H]1CC2(CCN(C(=O)c3ccc(C(C)(C)O)c(F)c3)CC2)Oc2ccccc21` [Compound 31], the half-maximal inhibitory concentration (IC50) was at most 2 µM.

In the case of `CCO[C@@H]1CC2(CCN(C(=O)c3ccc(S(=O)(=O)C(C)C)cc3)CC2)Oc2ccc(F)cc21` [Compound 32], the IC50 fell in the range of 2 to 5 µM. The same measure for `COc1cc(C(=O)N2CCC3(CC2)CC(OC(C)C)c2nn(C(C)(C)C)cc2O3)ccc1OC(C)C` (stereo not drawn) [Compound 34]: at most 2 µM; for `CC(C)OCC1CC2(CCN(C(=O)c3ccc(C(C)(C)O)cc3)CC2)Oc2ccccc21` (stereo not drawn) [Compound 35]: at most 2 µM; for `Cc1cc(C(=O)N2CCC3(CC2)C[C@@H](OC(C)C)c2ccccc2O3)ccc1O` [Compound 36]: at most 2 µM.

`Cc1cc(C(=O)N2CCC3(CC2)CC(OC(C)C)c2ccncc2O3)ccc1OC(C)C` (stereo not drawn) [Compound 37]: the IC50 is at most 2 µM. Consider `CCN(CC)CCOC1CC2(CCN(C(=O)c3ccc(OC(C)C)c(OC)c3)CC2)Oc2ccccc21` (stereo not drawn) [Compound 38], for which the IC50 is over 5 µM. For `CC(C)S(=O)(=O)c1ccc(C(=O)N2CCC3(CCc4ccccc4O3)CC2)cc1` [Compound 39], the IC50 is over 5 µM. As for `COc1ccccc1C(=O)N1CCC2(CC1)CC(C(C)C)c1ccccc1O2` (stereo not drawn) [Compound 40], the IC50 is over 5 µM. With `COC1CCN(c2ccc(C(=O)N3CCC4(CC3)C[C@@H](OC(C)C)c3cc(F)ccc3O4)nc2)CC1` [Compound 41], the IC50 was at most 2 µM. For the molecule `CC(C)Oc1ccc(C(=O)N2CCC3(CC2)C[C@H](OC(C)C)c2ccccc2O3)cc1CO` [Compound 42], the IC50 is at most 2 µM. For the molecule `Cc1cc(C(=O)N2CCC3(CC2)CC(OC(C)C)c2cc(C#N)ccc2O3)ccc1C(C)(C)O` (stereo not drawn) [Compound 43], the half-maximal inhibitory concentration (IC50) was at most 2 µM. Turning to `COCOC1=Cc2ccccc2OC12CCN(C(=O)c1ccc(OC(C)C)c(OC)c1)CC2` [Compound 44], the IC50 is at most 2 µM. Regarding `Cc1cc(C(=O)N2CCC3(CC2)CC(OC(C)C)c2cccnc2O3)ccc1OC(C)C` (stereo not drawn) [Compound 45], the IC50 was at most 2 µM.

As for `CC(C)Nc1ccc(C(=O)N2CCC3(CC2)C[C@@H](OC(C)C)c2cc(F)ccc2O3)nc1` [Compound 46], the IC50 is at most 2 µM. Turning to `COc1cc(C(=O)N2CCC3(CC2)CC(NC(C)C)c2ccccc2O3)ccc1OC(C)C` (stereo not drawn) [Compound 47], the IC50 is over 5 µM. For the molecule `CC(C)O[C@@H]1CC2(CCN(C(=O)c3ccc(C(C)(C)O)c(F)c3)CC2)Oc2ccc(F)cc21` [Compound 48], the IC50 was at most 2 µM. With `CC(C)O[C@@H]1CC2(CCN(C(=O)c3ccc(C4(O)CCCC4)cc3)CC2)Oc2ccc(F)cc21` [Compound 49], the IC50 is at most 2 µM.

As usually defined, the IC50 is the concentration at which inhibition is half-maximal.
